Data published in ChEMBL document CHEMBL3822397, “Synthesis and bioevaluation of novel benzodipyranone derivatives as P-glycoprotein inhibitors for multidrug resistance reversal agents” (Eur J Med Chem, 2016).

Columns and labels:
[1] = target: T1, ATP-dependent translocase ABCB1 (Homo sapiens, UniProt P08183); experiment: Inhibition of full length human ABCB1 expressed in Flp-In-293 cells at 5 uM incubated for 30 mins by calcein-AM uptake assay relative to control; format: cell-based; conditions: 0.5 h
[2] = target: T1, ATP-dependent translocase ABCB1; experiment: Inhibition of full length human ABCB1 expressed in Flp-In-293 cells at 2.5 uM incubated for 30 mins by calcein-AM uptake assay relative to control; format: cell-based; conditions: 0.5 h

T1 sequence (P08183 whole entry): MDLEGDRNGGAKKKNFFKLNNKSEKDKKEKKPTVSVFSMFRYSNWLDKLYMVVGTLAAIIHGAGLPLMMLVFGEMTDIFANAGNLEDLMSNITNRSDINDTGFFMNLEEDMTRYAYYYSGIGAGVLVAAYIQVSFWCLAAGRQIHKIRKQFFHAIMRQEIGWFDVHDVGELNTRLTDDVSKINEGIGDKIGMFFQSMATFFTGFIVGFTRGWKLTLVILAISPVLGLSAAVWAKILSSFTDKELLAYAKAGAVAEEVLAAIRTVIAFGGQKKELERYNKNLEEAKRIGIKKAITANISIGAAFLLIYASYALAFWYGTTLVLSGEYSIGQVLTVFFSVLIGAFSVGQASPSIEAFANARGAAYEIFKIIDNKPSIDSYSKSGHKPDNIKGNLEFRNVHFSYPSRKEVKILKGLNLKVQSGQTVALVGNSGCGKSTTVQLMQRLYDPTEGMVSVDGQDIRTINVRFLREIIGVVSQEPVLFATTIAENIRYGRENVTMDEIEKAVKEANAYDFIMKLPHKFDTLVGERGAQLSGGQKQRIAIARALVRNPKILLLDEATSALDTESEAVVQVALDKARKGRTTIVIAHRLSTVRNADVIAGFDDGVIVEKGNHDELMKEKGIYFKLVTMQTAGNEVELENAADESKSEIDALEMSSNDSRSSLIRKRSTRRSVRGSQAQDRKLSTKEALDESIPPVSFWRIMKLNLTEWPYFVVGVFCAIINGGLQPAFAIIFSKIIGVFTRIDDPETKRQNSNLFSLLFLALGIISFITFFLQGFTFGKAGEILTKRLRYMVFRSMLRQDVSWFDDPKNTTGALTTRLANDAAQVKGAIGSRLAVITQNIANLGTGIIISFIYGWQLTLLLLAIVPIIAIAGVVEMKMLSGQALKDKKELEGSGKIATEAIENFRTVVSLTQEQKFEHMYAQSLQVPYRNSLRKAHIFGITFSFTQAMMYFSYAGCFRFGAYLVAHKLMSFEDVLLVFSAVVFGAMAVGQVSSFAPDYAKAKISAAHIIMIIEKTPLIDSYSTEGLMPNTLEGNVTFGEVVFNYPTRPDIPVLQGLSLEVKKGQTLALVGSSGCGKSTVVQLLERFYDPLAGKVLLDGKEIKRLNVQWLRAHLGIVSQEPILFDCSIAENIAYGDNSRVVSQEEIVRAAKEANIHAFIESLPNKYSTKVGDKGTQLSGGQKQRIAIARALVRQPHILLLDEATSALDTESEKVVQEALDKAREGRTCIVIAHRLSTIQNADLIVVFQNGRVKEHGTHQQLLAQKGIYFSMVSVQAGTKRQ

| Compound | fold change (FC) [1] | fold change (FC) [2] |
| --- | --- | --- |
| O=c1c(-c2cccc(Cl)c2)coc2cc3occ(-c4cccc(Cl)c4)c(=O)c3c(O)c12 | 0.87 | 0.5 |
| O=c1c(-c2cccc(O)c2)coc2c1c(O)cc1occ(-c3cccc(O)c3)c(=O)c12 | 0.99 | 1.01 |
| O=c1c(-c2cccs2)coc2cc3occ(-c4cccs4)c(=O)c3c(O)c12 | 0.67 | 0.61 |
| O=c1c(-c2cccs2)coc2c1c(O)cc1occ(-c3cccs3)c(=O)c12 | 0.83 | 0.88 |
| O=c1c(-c2cccc(F)c2)coc2c1c(O)cc1occ(-c3cccc(F)c3)c(=O)c12 | 0.82 | 0.96 |
| O=c1c(-c2ccccc2)coc2cc3occ(-c4ccccc4)c(=O)c3c(O)c12 | 0.9 | 1.04 |
| O=c1c(-c2cccc3ccccc23)coc2c1c(O)cc1occ(-c3cccc4ccccc34)c(=O)c12 | 0.85 | 0.87 |
| O=c1c(-c2cccc(Cl)c2)coc2c1c(O)cc1occ(-c3cccc(Cl)c3)c(=O)c12 | 0.82 | 0.83 |
| COc1cccc(-c2coc3cc4occ(-c5cccc(OC)c5)c(=O)c4c(O)c3c2=O)c1 | 0.85 | 1 |
| O=c1c(-c2ccccc2[N+](=O)[O-])coc2c1c(O)cc1occ(-c3ccccc3[N+](=O)[O-])c(=O)c12 | 1.03 | 0.98 |
| O=c1c(-c2ccc(F)cc2)coc2c1c(O)cc1occ(-c3ccc(F)cc3)c(=O)c12 | 0.84 | 0.92 |
| O=c1c(-c2ccc(F)cc2)coc2cc3occ(-c4ccc(F)cc4)c(=O)c3c(O)c12 | 1.3 | 0.85 |
| O=c1c(-c2ccc([N+](=O)[O-])cc2)coc2c1c(O)cc1occ(-c3ccc([N+](=O)[O-])cc3)c(=O)c12 | 0.75 | 0.88 |
| O=c1c(C2CC2)coc2c1c(O)cc1occ(C3CC3)c(=O)c12 | 0.63 | 0.8 |
| O=c1c(-c2ccc(Cl)cc2)coc2cc3occ(-c4ccc(Cl)cc4)c(=O)c3c(O)c12 | 1.08 | 1.06 |
| Cc1ccccc1-c1coc2cc3occ(-c4ccccc4C)c(=O)c3c(O)c2c1=O | 0.81 | 0.87 |
| O=c1c(-c2c(F)cccc2Cl)coc2cc3occ(-c4c(F)cccc4Cl)c(=O)c3c(O)c12 | 1.06 | 0.95 |
| O=c1c(-c2ccc(Cl)cc2)coc2c1c(O)cc1occ(-c3ccc(Cl)cc3)c(=O)c12 | 0.82 | 0.76 |
| COc1cccc(-c2coc3c(c(O)cc4occ(-c5cccc(OC)c5)c(=O)c43)c2=O)c1 | 1.28 | 1.19 |
| O=c1c(-c2ccccc2Cl)coc2cc3occ(-c4ccccc4Cl)c(=O)c3c(O)c12 | 0.85 | 0.71 |
| O=c1c(-c2c(F)cccc2Cl)coc2c1c(O)cc1occ(-c3c(F)cccc3Cl)c(=O)c12 | 0.64 | 0.66 |
| O=c1c(-c2ccccc2C(F)(F)F)coc2c1c(O)cc1occ(-c3ccccc3C(F)(F)F)c(=O)c12 | 0.81 | 0.76 |
| COc1ccccc1-c1coc2cc3occ(-c4ccccc4OC)c(=O)c3c(O)c2c1=O | 0.82 | 0.76 |
| O=c1c(-c2cccc(C(F)(F)F)c2)coc2c1c(O)cc1occ(-c3cccc(C(F)(F)F)c3)c(=O)c12 | 1.15 | 1.1 |

| Compound | fold change (FC) [1] | fold change (FC) [2] |
| --- | --- | --- |
| O=c1c(-c2ccc(OC(F)(F)F)cc2)coc2c1c(O)cc1occ(-c3ccc(OC(F)(F)F)cc3)c(=O)c12 | 1.04 | 0.97 |
| O=c1c(C2CC2)coc2cc3occ(C4CC4)c(=O)c3c(O)c12 | 0.86 | 0.86 |
| O=c1c(-c2ccccc2)coc2c1c(O)cc1occ(-c3ccccc3)c(=O)c12 | 1.29 | 1.04 |
| O=c1c(-c2ccc(C(F)(F)F)cc2)coc2c1c(O)cc1occ(-c3ccc(C(F)(F)F)cc3)c(=O)c12 | 0.9 | 0.87 |
| O=c1c(-c2ccc(Cl)c(Cl)c2)coc2c1c(O)cc1occ(-c3ccc(Cl)c(Cl)c3)c(=O)c12 | 0.81 | 0.8 |
| O=c1c(-c2ccc(OC(F)(F)F)cc2)coc2cc3occ(-c4ccc(OC(F)(F)F)cc4)c(=O)c3c(O)c12 | 0.63 | 0.62 |
| Cc1cccc(-c2coc3cc4occ(-c5cccc(C)c5)c(=O)c4c(O)c3c2=O)c1 | 0.93 | 0.86 |
| O=c1c(-c2ccccc2C(F)(F)F)coc2cc3occ(-c4ccccc4C(F)(F)F)c(=O)c3c(O)c12 | 1.36 | 1.32 |
| Cc1ccccc1-c1coc2c(c(O)cc3occ(-c4ccccc4C)c(=O)c32)c1=O | 1.53 | 1.15 |
| COc1cc(-c2coc3cc4occ(-c5cc(OC)c(OC)c(OC)c5)c(=O)c4c(O)c3c2=O)cc(OC)c1OC | 0.72 | 0.8 |
| O=c1c(-c2ccc3c(c2)OCO3)coc2c1c(O)cc1occ(-c3ccc4c(c3)OCO4)c(=O)c12 | 0.7 | 0.72 |
| O=c1c(-c2cccc(O)c2)coc2cc3occ(-c4cccc(O)c4)c(=O)c3c(O)c12 | 1.19 | 1.33 |
| O=c1c(-c2ccccc2F)coc2c1c(O)cc1occ(-c3ccccc3F)c(=O)c12 | 0.67 | 0.76 |
| COc1ccccc1-c1coc2c(c(O)cc3occ(-c4ccccc4OC)c(=O)c32)c1=O | 1.56 | 1.4 |
| O=c1c(-c2cccc(C(F)(F)F)c2)coc2cc3occ(-c4cccc(C(F)(F)F)c4)c(=O)c3c(O)c12 | 1.18 | 1.27 |
| Cc1ccc(-c2coc3c(c(O)cc4occ(-c5ccc(C)cc5)c(=O)c43)c2=O)cc1 | 2.04 | 1.58 |
| COc1ccc(CCN(C)CCCC(C#N)(c2ccc(OC)c(OC)c2)C(C)C)cc1OC (stereo not drawn) [VERAPAMIL] | 2.39 |  |
| COc1ccc(-c2coc3cc4occ(-c5ccc(OC)c(OC)c5)c(=O)c4c(O)c3c2=O)cc1OC | 0.86 | 0.81 |
| O=c1c(-c2cccc(F)c2)coc2cc3occ(-c4cccc(F)c4)c(=O)c3c(O)c12 | 0.75 | 0.6 |
| COc1ccc(-c2coc3cc4occ(-c5ccc(OC)cc5)c(=O)c4c(O)c3c2=O)cc1 | 1.3 | 0.87 |
| O=c1c(-c2ccccc2[N+](=O)[O-])coc2cc3occ(-c4ccccc4[N+](=O)[O-])c(=O)c3c(O)c12 | 0.83 | 0.85 |
| Cc1ccc(-c2coc3cc4occ(-c5ccc(C)cc5)c(=O)c4c(O)c3c2=O)cc1 | 1.81 | 1.62 |
| COc1cc(-c2coc3c(c(O)cc4occ(-c5cc(OC)c(OC)c(OC)c5)c(=O)c43)c2=O)cc(OC)c1OC | 0.75 | 0.76 |
